Measured values: PubChem BioAssay AID330 (DTP/NCI, 2004)
“And” between values parts separate entries of the source, which are not always exact repeats. Identical values can stand only once. Toxic doses and inconclusive results are not listed. How the source made its calls: active means survival T/C of 150% or more; inactive means T/C below 125% in these data.

Tested on: P388 leukemia ip, CD2F1 mice, survival T/C
Assay: NCI In Vivo Anticancer Drug Screen. Data for tumor model P388 Leukemia (intraperitoneal) in CD2F1 (CDF1) mice
Settings: endpoint: median survival time, higher = longer survival
How it was run: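 Mice carrying the transplanted tumor received test compound or vehicle. Survival was recorded in each group, and the value is the treated-group measurement divided by that of the vehicle-treated control group.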

[1] = dose: 60.0 mg/kg/injection, schedule: Q01DX005 (ip), vehicle: Klucel (hydroxypropylcellulose) (HPC)
[2] = dose: 120.0 mg/kg/injection, schedule: Q01DX005 (ip), vehicle: Klucel (hydroxypropylcellulose) (HPC)
[3] = dose: 240.0 mg/kg/injection, schedule: Q01DX005 (ip), vehicle: Klucel (hydroxypropylcellulose) (HPC)
[4] = dose: 50.0 mg/kg/injection, schedule: Q01DX009 (ip), vehicle: Klucel (hydroxypropylcellulose) (HPC)
[5] = dose: 50.0 mg/kg/injection, schedule: Q01DX009 (ip), vehicle: saline
[6] = dose: 100.0 mg/kg/injection, schedule: Q01DX009 (ip), vehicle: saline
[7] = dose: 200.0 mg/kg/injection, schedule: Q01DX009 (ip), vehicle: saline
[8] = dose: 240.0 mg/kg/injection, schedule: Q01DX005 (ip), vehicle: saline with Tween-80
[9] = dose: 50.0 mg/kg/injection, schedule: Q01DX005 (ip), vehicle: Klucel (hydroxypropylcellulose) (HPC)
[10] = dose: 100.0 mg/kg/injection, schedule: Q01DX005 (ip), vehicle: Klucel (hydroxypropylcellulose) (HPC)
[11] = dose: 200.0 mg/kg/injection, schedule: Q01DX005 (ip), vehicle: Klucel (hydroxypropylcellulose) (HPC)
[12] = dose: 60.0 mg/kg/injection, schedule: Q01DX005 (ip), vehicle: saline with Tween-80
[13] = dose: 120.0 mg/kg/injection, schedule: Q01DX005 (ip), vehicle: saline with Tween-80
[14] = dose: 10.0 mg/kg/injection, schedule: Q01DX009 (ip), vehicle: saline with Tween-80
[15] = dose: 20.0 mg/kg/injection, schedule: Q01DX009 (ip), vehicle: saline with Tween-80
[16] = dose: 12.5 mg/kg/injection, schedule: Q01DX009 (ip), vehicle: Klucel (hydroxypropylcellulose) (HPC)
[17] = dose: 25.0 mg/kg/injection, schedule: Q01DX009 (ip), vehicle: Klucel (hydroxypropylcellulose) (HPC)
[18] = dose: 25.0 mg/kg/injection, schedule: Q01DX009 (ip), vehicle: saline with Tween-80
[19] = dose: 50.0 mg/kg/injection, schedule: Q01DX009 (ip), vehicle: saline with Tween-80
[20] = dose: 100.0 mg/kg/injection, schedule: Q01DX009 (ip), vehicle: saline with Tween-80
[21] = dose: 200.0 mg/kg/injection, schedule: Q01DX009 (ip), vehicle: saline with Tween-80

Measured: T/C

CCN(Cc1c(C)[nH]c2cc(N(C)C)ccc2c1=O)Cc1c(C)[nH]c2cc(N(C)C)ccc2c1=O
inactive: [1] 90 % of control | [2] 92 % of control | [3] 91 % of control

COC(=O)C(N)=NCC(C)NC(=O)c1ccccc1 (stereo not given)
inactive: [4] 99 % of control | dose: 100.0 mg/kg/injection, schedule: Q01DX009 (ip), vehicle: Klucel (hydroxypropylcellulose) (HPC) 101 % of control | dose: 200.0 mg/kg/injection, schedule: Q01DX009 (ip), vehicle: Klucel (hydroxypropylcellulose) (HPC) 100 % of control

Cc1ccc(S(=O)(=O)Nc2cc(S(=O)(=O)O)c(N)c3c2C(=O)c2ccccc2C3=O)cc1
inactive: [5] 86 % of control | [6] 97 % of control | [7] 101 % of control

O=C(CNC(=O)Nc1ccc(Cl)c(Cl)c1)N/N=C/c1c(O)ccc2ccccc12
inactive: dose: 3.75 mg/kg/injection, schedule: Q01DX005 (ip), vehicle: saline with Tween-80 96 % of control | dose: 7.5 mg/kg/injection, schedule: Q01DX005 (ip), vehicle: saline with Tween-80 102 % of control | dose: 15.0 mg/kg/injection, schedule: Q01DX005 (ip), vehicle: saline with Tween-80 88 % of control and 94 % of control | [8] 100 % of control

C(=N\c1nccs1)/c1ccc[nH]1
inactive: [9] 99 % of control | [10] 96 % of control | [11] 100 % of control

CN1CCC/C1=C1/CCc2ccccc2C1=O
inactive: [9] 103 % of control | [10] 108 % of control | [11] 107 % of control

SCC(CS)=C(CS)CS
inactive: [12] 112 % of control | [13] 113 % of control | [8] 106 % of control

CC(C)=CCOc1ccc2ccc(=O)oc2c1
inactive: dose: 5.0 mg/kg/injection, schedule: Q01DX009 (ip), vehicle: saline with Tween-80 106 % of control | [14] 108 % of control | [15] 103 % of control

COc1ccc(C(=O)N2N=C(C)C(C)(C)C2(C)O)cc1 (stereo not given)
inactive: [1] 104 % of control | [2] 109 % of control | [3] 104 % of control

C[C@]12CC[C@H]([C@@]3(C)CC[C@H]4CC[C@]43O)[C@@H](CO)[C@@H]1CC[C@@H]2O
inactive: [12] 104 % of control | [13] 98 % of control | [8] 91 % of control

O=c1ccn(C2OC(CO)C(O)C2O)c(=O)[nH]1 (stereo not given)
inactive: dose: 25.0 mg/kg/injection, schedule: Q01DX009 (ip), vehicle: water 100 % of control | dose: 32.0 mg/kg/injection, schedule: Q01DX009 (ip), vehicle: Klucel (hydroxypropylcellulose) (HPC) 90 % of control | dose: 32.0 mg/kg/injection, schedule: Q01DX009 (ip), vehicle: saline 86 % of control and 87 % of control | [5] 108 % of control | dose: 50.0 mg/kg/injection, schedule: Q01DX009 (ip), vehicle: water 100 % of control | dose: 64.0 mg/kg/injection, schedule: Q01DX009 (ip), vehicle: Klucel (hydroxypropylcellulose) (HPC) 90 % of control | [6] 94 % of control and 115 % of control | dose: 100.0 mg/kg/injection, schedule: Q01DX009 (ip), vehicle: water 106 % of control | dose: 128.0 mg/kg/injection, schedule: Q01DX009 (ip), vehicle: Klucel (hydroxypropylcellulose) (HPC) 88 % of control | [7] 94 % of control and 112 % of control | dose: 200.0 mg/kg/injection, schedule: Q01DX009 (ip), vehicle: water 106 % of control | dose: 256.0 mg/kg/injection, schedule: Q01DX009 (ip), vehicle: Klucel (hydroxypropylcellulose) (HPC) 98 % of control | dose: 400.0 mg/kg/injection, schedule: Q01DX009 (ip), vehicle: saline 103 % of control and 100 % of control | dose: 400.0 mg/kg/injection, schedule: Q01DX009 (ip), vehicle: water 108 % of control | dose: 512.0 mg/kg/injection, schedule: Q01DX009 (ip), vehicle: Klucel (hydroxypropylcellulose) (HPC) 98 % of control | dose: 800.0 mg/kg/injection, schedule: Q01DX009 (ip), vehicle: saline 98 % of control | dose: 1024.0 mg/kg/injection, schedule: Q01DX009 (ip), vehicle: saline 100 % of control and 89 % of control | dose: 1600.0 mg/kg/injection, schedule: Q01DX009 (ip), vehicle: saline 98 % of control

NCCN.NCCN.[Cl-].[O]=[Os+2]=[O]
inactive: [12] 118 % of control | [13] 114 % of control

O=S1(=O)CCN(C2CC2)CC1
inactive: [16] 98 % of control | [17] 100 % of control | [4] 111 % of control

N/N=C(/N)C1=NOCC1
inactive: dose: 100.0 mg/kg/injection, schedule: Q04DX002 (ip), vehicle: saline 114 % of control | dose: 200.0 mg/kg/injection, schedule: Q04DX002 (ip), vehicle: saline 106 % of control

O=C(O)/C=C(/CC(=O)O)c1ccc(O)cc1
inactive: [1] 97 % of control | [2] 102 % of control | [3] 100 % of control

c1cc[c]([Bi]([c]2ccccc2)[c]2ccccc2)cc1
inactive: [16] 103 % of control | [17] 106 % of control | [4] 101 % of control and 112 % of control

CN1C2C=C(c3ccc(C(F)(F)F)cc3)CC1CC2 (stereo not given)
inactive: dose: 25.0 mg/kg/injection, schedule: Q01DX005 (ip), vehicle: Klucel (hydroxypropylcellulose) (HPC) 100 % of control and 107 % of control | [9] 106 % of control | dose: 50.0 mg/kg/injection, schedule: Q01DX005 (ip), vehicle: saline 102 % of control | [10] 98 % of control | dose: 100.0 mg/kg/injection, schedule: Q01DX005 (ip), vehicle: saline 104 % of control

Cc1cc(NCCO)nc2c1ccc1ccccc12
inactive: [18] 90 % of control | [19] 91 % of control | [20] 101 % of control

CCOC(=O)CC1NC(=O)CNC1=O (stereo not given)
inactive: dose: 60.0 mg/kg/injection, schedule: Q01DX005 (ip), vehicle: saline 100 % of control | dose: 120.0 mg/kg/injection, schedule: Q01DX005 (ip), vehicle: saline 101 % of control | dose: 240.0 mg/kg/injection, schedule: Q01DX005 (ip), vehicle: saline 100 % of control

C=CC(C)NC(=S)NNC(=S)NC (stereo not given)
inactive: [9] 101 % of control | [10] 100 % of control | [11] 101 % of control

CC(=O)C(C#N)c1ccccn1 (stereo not given)
inactive: [19] 106 % of control | [20] 105 % of control | [21] 100 % of control

CC1=C[P+](c2ccccc2)(c2ccccc2)c2ccccc2O1
inactive: dose: 1.56 mg/kg/injection, schedule: Q01DX005 (ip), vehicle: Klucel (hydroxypropylcellulose) (HPC) 96 % of control | dose: 3.12 mg/kg/injection, schedule: Q01DX005 (ip), vehicle: Klucel (hydroxypropylcellulose) (HPC) 109 % of control | dose: 6.25 mg/kg/injection, schedule: Q01DX005 (ip), vehicle: Klucel (hydroxypropylcellulose) (HPC) 110 % of control

CC(=O)CC(=O)c1ccc(F)cc1.CC(=O)CC(=O)c1ccc(F)cc1.[Cu]
inactive: [14] 88 % of control | [15] 89 % of control

CC(=O)N1c2ccccc2Sc2ccc3ccccc3c21
inactive: [19] 93 % of control | [20] 100 % of control | [21] 99 % of control

CCOC(=O)/C(C#N)=C\c1ccc(/C=C(\C#N)C(=O)OCC)cc1
inactive: [18] 90 % of control | [19] 100 % of control | [20] 90 % of control | dose: 100.0 mg/kg/injection, schedule: Q04DX003 (ip), vehicle: saline with Tween-80 95 % of control

Cc1cc2nc(/N=C/c3nc(O)c(C)[nH]3)[nH]c2cc1C
inactive: dose: 30.0 mg/kg/injection, schedule: Q01DX005 (ip), vehicle: Klucel (hydroxypropylcellulose) (HPC) 103 % of control | [1] 98 % of control | [2] 99 % of control | [3] 104 % of control
